These results are taken from publication PMC6364417, “Kinase inhibitor library screening identifies synergistic drug combinations effective in sensitive and resistant melanoma cells” (Journal of Experimental & Clinical Cancer Research : CR, 2019).

The structures appear in SMILES notation.

Assay [1] concerns A375-GP cells (Dabrafenib-resistant). Briefly: Dose-response curves and IC50, PrestoBlue cell viability, 72 h. Format: cell-based, human. The following applies: Homo sapiens, n.e. = did not suppress growth below 50% in the tested concentration range, read-out: Half-maximal inhibitory concentration value (IC50), Mean.
Another assay deals with A375 cells (parental). Described as above. Format: cell-based, human. The following applies: Homo sapiens, A-375, n.e. = did not suppress growth below 50% in the tested concentration range, read-out: Half-maximal inhibitory concentration value (IC50), Mean.
The subject of assay [2] is A375 parental cells expressing iRFP. Briefly: Long-term inhibitor treatment, iRFP fluorescence proliferation monitoring. Format: cell-based, human. The protocol: A375 parental and BRAFi-resistant cells, virally transduced with the near-infrared fluorescent protein (iRFP) were seeded at a density of 2500 cells/well in a 24-well plate (Greiner) in at least technical triplicates. Inhibitors, single or in combination, were added at the indicated amounts and replenished every 72 h for a duration of 76 days. To assess whether any remaining cells have become resistant to the treatment and would re-emerge, the drugs were removed and the cells underwent “drug holidays” for an additional 21 days. During the long-term treatment, cell proliferation was monitored bi-weekly on a LI-COR Odyssey Infrared Imaging System (LI-COR Biosciences). Fluorescence intensity was quantified with the Image Studio™ Lite software (LI-COR Biosciences).

The next assay concerns A375 cells. Briefly: Synergy determination with the Chou-Talalay method (CompuSyn), cell viability 72 h. Format: cell-based, human. The following applies: 72 h cell viability, Chou-Talalay / Synergyfinder.
The next assay concerns melanoma tumors. The following applies: cited from earlier work.
The subject of assay [3] is A375-XP cells (Vemurafenib-resistant). Briefly: Dose-response curves and IC50, PrestoBlue cell viability, 72 h. Conditions: Homo sapiens, n.e. = did not suppress growth below 50% in the tested concentration range, read-out: Half-maximal inhibitory concentration value (IC50), Mean. Format: cell-based, human.
In assay [4] the test system is NHDF (normal human dermal fibroblasts). Description: Dose-response curves and IC50 in non-cancer cells, cell viability, 72 h. The following applies: Homo sapiens, NHDF, read-out: Half-maximal inhibitory concentration (IC50), NHDF Mean. The protocol:
(§1) The IC50 values (nM) were calculated as indicated in Methods.

The subject of another assay is melanoma cell lines. The following applies: several other melanoma cell lines; cited from earlier work.
Assay [5] has as its system NHEM (normal human epidermal melanocytes). Briefly: Dose-response curves and IC50 in non-cancer cells, cell viability, 72 h. Conditions: Homo sapiens, Melanocyte, read-out: Half-maximal inhibitory concentration (IC50), NHEM Mean. The protocol:
as §1

Turning to `CC[C@@H]1C(=O)N(C)c2cnc(Nc3ccc(C(=O)N[C@H]4CC[C@H](N5CCN(CC6CC6)CC5)CC4)cc3OC)nc2N1C(C)C` [Volasertib], the IC50 in [1] was determined as 15 nM; in the assay on A375 cells (parental) it was 21 nM; in [3] it was 21 nM; in assay [4], 75 nM. The “regrowth after removal of drugs (after day 76, by day 97) (in words)” value in assay [2] is “had started to grow back”. Also, the “long-term cell growth under drug until day 76 (in words)” value in assay [2] (40 nM (also 20 nM, data not shown)) is reported as “killed all cells”. In addition, the “synergistic effects with the BRAF inhibitors Vemurafenib and/or Dabrafenib (in words)” value in the assay on A375 cells is reported as “synergistic effects only with Dabrafenib”. The “effect on melanoma tumors in vivo (in words)” value with melanoma tumors was “delay growth of melanoma tumors and to cause regression by inducing apoptosis in vivo”.
Turning to `CO[C@@H](C(=O)N1Cc2n[nH]c(NC(=O)c3ccc(N4CCN(C)CC4)cc3)c2C1)c1ccccc1` [Danusertib], the IC50 in assay [1] was 257 nM; with A375 cells (parental), 328 nM; in assay [3], 295 nM; in assay [4] it was 1170 nM; in assay [5], 370 nM. The “long-term cell growth under drug until day 76 (in words)” value in assay [2] (drugs replenished every 72 h, indicated concentrations) is “inconsistent”. The “synergistic effects with the BRAF inhibitors Vemurafenib and/or Dabrafenib (in words)” value with A375 cells is listed as “clear synergistic effects”. The “apoptosis and migration of melanoma cell lines (in words)” value in the assay on melanoma cell lines was “induced apoptosis and inhibited migration”.
